Measured values: publication PMC4149570 (PLoS ONE, 2014)
Values joined by “and” are separate entries in the source; they are usually repeats but may differ in a detail not shown here. Equal values may be shown once. “Also recorded” adds a separate entry of the source. Read-outs that look alike come from different tables or passages of the source.

Key:
Y. pestis MEP synthase [1] = target: T1, Y. pestis MEP synthase (Yersinia pestis, UniProt Q8ZH62); details: for IC50: read-out: IC50 (dose-response, Figure 9)
Y. pestis MEP synthase [2] = target: T1, Y. pestis MEP synthase; assay: biochemical; details: for inhibition at 100 µM: read-out: inhibition of enzymatic activity (rational library screen)
MEP synthase = details: cited from earlier work
[3] = system: F. tularensis MEP synthase; details: cited from earlier work
E.coli MEP synthase = details: cited from earlier work
Y. pestis subsp. A1122 = assay: microbe, parasite or virus in culture; format: cell-based, Yersinia pestis; details: for IC50: read-out: IC50 of Y. pestis growth (fractional growth, OD600)
[4] = target: Synechocytis sp PCC6803 MEP synthase; details: cited from earlier work
F. tularensis = details: read-out: activity of fosmidomycin with F. tularensis (half maximal growth inhibition); cited from earlier work
[5] = Yersinia pestis, SUBSP.A1122, 24 h
[6] = IC50 (enzyme preincubated with inhibitor, Figure 10)

T1 sequence (Q8ZH62 whole entry, looked up): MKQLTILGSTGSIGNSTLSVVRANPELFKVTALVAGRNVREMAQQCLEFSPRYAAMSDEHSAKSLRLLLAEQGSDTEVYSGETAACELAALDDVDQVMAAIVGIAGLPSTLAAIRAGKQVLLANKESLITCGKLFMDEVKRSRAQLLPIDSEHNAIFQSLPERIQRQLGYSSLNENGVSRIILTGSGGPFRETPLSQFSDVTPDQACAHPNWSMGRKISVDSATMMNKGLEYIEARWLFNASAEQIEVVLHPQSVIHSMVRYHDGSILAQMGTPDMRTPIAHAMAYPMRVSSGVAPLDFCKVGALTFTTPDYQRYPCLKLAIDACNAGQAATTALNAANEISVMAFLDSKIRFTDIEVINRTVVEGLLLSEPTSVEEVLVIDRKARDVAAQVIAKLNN

CC(C)=CCOP(=O)(O)OP(=O)(O)O [DMAPP, dimethylallyl pyrophosphate]
inhibition of Y. pestis MEP synthase (feedback inhibition test) (Y. pestis MEP synthase [1]): No enzyme inhibition was observed

CC(=O)N(O)CCCP(=O)(O)O [FR900098, reference compound]
Ki (Y. pestis MEP synthase [2]): 0.17 ± 0.0071 µM | IC50 (Y. pestis MEP synthase [2]; IC50 FR900098): 0.231 µM | mode of inhibition relative to DXP (MEP synthase): competitive | mode of inhibition with respect to the binding of NADPH (MEP synthase): uncompetitive | mode of inhibition with respect to DXP (Y. pestis MEP synthase [1]): competitive | mode of inhibition with respect to NADPH (Y. pestis MEP synthase [1]): uncompetitive | IC50 ([3]; read-out: IC50 FR900098): 0.23 µM | IC50 (E.coli MEP synthase; read-out: IC50 FR900098): 0.035 µM | IC50 (Y. pestis subsp. A1122; [5]): 29 µM and 6.4 µg/mL | IC50 (Y. pestis subsp. A1122): 29.3 µM | Ki ([4]; read-out: Ki FR900098): 0.002 µM

CC(C)=CCC/C(C)=C/COP(=O)(O)OP(=O)(O)O [GPP, geranyl pyrophosphate]
inhibition of Y. pestis MEP synthase (feedback inhibition test) (Y. pestis MEP synthase [1]): No enzyme inhibition was observed

C=C(C)CCO[P@@](=O)(O)OP(=O)(O)O [IPP, isopentenyl pyrophosphate]
inhibition of Y. pestis MEP synthase (feedback inhibition test) (Y. pestis MEP synthase [1]): No enzyme inhibition was observed

CC1(C)S[C@@H]2[C@H](NC(=O)[C@H](N)c3ccccc3)C(=O)N2[C@H]1C(=O)O [ampicillin, reference compound]
IC50 (Y. pestis subsp. A1122; [5]): 10.8 µM and 3.8 µg/mL

CC(=O)N(CCCP(=O)(O)O)OCc1ccc(-c2ccccc2)cc1 [compound 13]
inhibition at 100 µM (Y. pestis MEP synthase [2]): > 75% | IC50 (Y. pestis MEP synthase [1]): 5.11 µM

C[C@@]1(CO)OP(=O)(O)OP(=O)(O)OC[C@H]1O [compound 15]
IC50 (Y. pestis MEP synthase [2]; IC50 (dose-response, Figure 9)): 4.11 µM | IC50 (Y. pestis MEP synthase [2]; [6]): 1.19 µM | inhibition at 100 µM (Y. pestis MEP synthase [2]): > 75% | improvement of IC50 on preincubation with inhibitor (Y. pestis MEP synthase [1]): approximately 3 fold | growth inhibitory activity towards Y. pestis liquid culture (Y. pestis subsp. A1122): comparable to FR900098; also recorded: relatively poor inhibitory activity

C/C(=C\COP(=O)(O)OP(=O)(O)O)CO [compound 16]
IC50 (Y. pestis MEP synthase [2]; IC50 (dose-response, Figure 9)): 4.15 µM | IC50 (Y. pestis MEP synthase [2]; [6]): 0.335 µM | inhibition at 100 µM (Y. pestis MEP synthase [2]): > 75% | improvement of IC50 on preincubation with inhibitor (Y. pestis MEP synthase [1]): ~12 fold | mode of inhibition with respect to DXP (Y. pestis MEP synthase [1]): competitive | mode of inhibition with respect to NADPH (Y. pestis MEP synthase [1]): competitive | growth inhibitory activity towards Y. pestis liquid culture (Y. pestis subsp. A1122): comparable to FR900098; also recorded: relatively poor inhibitory activity

Cc1ccc(C(=O)N(O)CCCP(=O)(O)O)cc1 [compound 42]
inhibition at 100 µM (Y. pestis MEP synthase [2]): > 75% | IC50 (Y. pestis MEP synthase [1]): 10.8 µM

O=C(c1ccc2ccccc2c1)N(O)CCCP(=O)(O)O [compound 48]
inhibition at 100 µM (Y. pestis MEP synthase [2]): > 75% | IC50 (Y. pestis MEP synthase [1]): 9.53 µM

CCOP(=O)(CCCN(OCc1ccc(C(C)C)cc1)C(C)=O)OCC [compound 51]
growth inhibitory activity towards Y. pestis liquid culture (Y. pestis subsp. A1122): comparable to FR900098; also recorded: relatively poor inhibitory activity

CC(=O)N(CCCP(=O)(OCOC(=O)C(C)(C)C)OCOC(=O)C(C)(C)C)OCc1ccc(C(C)C)cc1 [compound 52]
growth inhibitory activity towards Y. pestis liquid culture (Y. pestis subsp. A1122): comparable to FR900098; also recorded: relatively poor inhibitory activity

O=CN(O)CCCP(=O)(O)O [fosmidomycin]
Ki (Y. pestis MEP synthase [2]): 0.968 µM | IC50 (Y. pestis MEP synthase [2]; IC50 fos): 0.71 µM | mode of inhibition with respect to the binding of NADPH (MEP synthase): uncompetitive | IC50 ([3]; read-out: IC50 fos): 0.247 µM | Ki ([3]; read-out: Ki fos): 0.0989 ± 0.0045 µM | IC50 (E.coli MEP synthase; read-out: IC50 fos): 0.035 µM | Ki (E.coli MEP synthase; read-out: Ki fos): 0.021 to 0.215 µM | Ki ([4]; read-out: Ki fos): 0.004 µM | IC50 (F. tularensis): 12.1 µM
